From US12234212B2, “Peptide conjugates of microtubule-targeting agents as therapeutics” (Cybrexa 3, Inc., priority 2019, dated 2025)

Columns and labels:
[1] = test system: nude mice bearing HCT116 colorectal flank tumors; assay: Mouse colorectal cancer model, Kaplan-Meier survival; type: in vivo; conditions: IP, QDX4; DM4 0.42 μmole/kg; Compound 5 0.21-0.42 μmole/kg; post-dosing period
Procedure: Six-week-old female athymic nude Foxn^nu mice were obtained from Taconic Labs (Cat #NCRNU-F) and were housed 5 per cage on Alpha-Dri bedding in a disposable caging system. Human HCT116 cells derived from colorectal carcinoma were diluted 1:1 in Phenol Red-free Matrigel and subcutaneously implanted into the left flank of each mouse at a density of 2.5×10^6 cells in 100 μL. When xenografts reached a mean volume of 100-200 mm^3, mice were randomized into groups and treated as detailed in the table below. Mice were administered intraperitoneal (IP) doses of vehicle or 0.21, 0.29, 0.35, 0.42 μmole/kg Compound 5 (equivalent to 1.1, 1.4, 1.7, or 2 mg/kg Compound 5) or 0.42 μmole/kg unconjugated DM4 (equivalent to 0.33 mg/kg unconjugated DM4). Doses were prepared by diluting 0.1 mg/μL DMSO stocks in 5% mannitol in citrate buffer and were administered QDX4 with a two day interval between the second and third doses, at a volume of 12 mL/kg (300 μL per 25 g mouse). Xenograft tumors were measured by calipers and volume was calculated using the equation for ellipsoid volume: Volume=π/6×(length)×(width)^2. Body weight of animals was measured at the same time as tumor volume assessment. Animals were removed from the study due to death, tumor size exceeding 2000 mm^3 or loss of >20% body weight. Kaplan-Meier analysis was used to evaluate survival rate based on death or removal from study.

[2] = test system: FaDu; assay: Growth delay assay, FaDu; type: cell-based; conditions: FaDu cells, 96 hours after addition of drug, cell count (Hoechst)
Procedure: (§1) Cells were plated in 96 well black walled-clear bottom plates (Griener), DLD-1 WT cells at 2500 cells per well, FaDu, and HeLa cells at 5000 cells per well, and HCT116 at 3000 cells per well, in growth media containing […]. Cells were allowed to adhere at room temperature for 60 minutes before returning to a 37 C, 5% CO2 incubator. After 24 hours, media was removed and replaced with fresh growth media containing various drug concentrations. Each drug concentration was added in triplicate. Non-drug treated controls contained growth media only. Cells were returned to the incubator. Ninety-six hours after addition of drug, cells were fixed with […] for 20 minutes and stained with Hoechst at 1 μg/mL. The plates were imaged on a Cytation 5 auto imager (BioTek) and cells were counted using CellProfiler (http://cellprofiler.org). The percent cell growth delay was calculated and data plotted using GraphPad Prism

[3] = test system: DLD-1 WT cells; assay: Growth delay assay, DLD-1; type: cell-based; conditions: DLD-1 cells, 96 hours after addition of drug, cell count (Hoechst)
Procedure: as §1

[4] = test system: HeLa cells; assay: Growth delay assay, HeLa; type: cell-based; conditions: 96 hours after addition of drug, cell count (Hoechst)
Procedure: as §1

[5] = test system: T1, Biotin-labeled human tubulin derived from HeLa cells (β-tubulin); assay: Kinetic analysis of conjugate binding (Biacore surface plasmon resonance); conditions: Biacore S200, 25° C., immobilized tubulin; read-out: KD (affinity constant, steady state) for β-tubulin
T1 construct: fused on or other part: Biotin label, used for capture on a streptavidin sensor chip
Procedure: Binding experiments were performed using a Biacore S200 instrument. A Series S sensor chip with pre-immobilized streptavidin was conditioned with 1 M NaCl in 50 mM NaOH. Biotin-labeled human tubulin derived from HeLa cells was immobilized to the sensor chip at a concentration of 125 μg/mL in HBS-P+ buffer at a flow rate of 10 μl/min. A final 3000 RU (response units) of protein was directly immobilized to the chip. After tubulin immobilization, the sensor chip was washed with 50% isopropanol, 50 mM NaOH and 1 M NaCl and subsequently allowed to equilibrate in assay buffer for 4 hours. A streptavidin-biotin capture blank (reference FC) was used to monitor non-specific binding.
To collect kinetic binding data, Compound 5 diluted in assay buffer was injected over the flow cells at concentrations ranging from 100 μM to 0.048 μM and 50 μM to 0.024 μM, at a flow rate of 60 μL/minute and a temperature of 25° C. The complex was allowed to dissociate for 60 seconds. Binding of compound to tubulin was monitored in real time to obtain on (Ka) and off (Koff) rates. The affinity constant (KD) was calculated by steady state kinetics.

[6] = test system: HCT116; assay: Growth delay assay, HCT116; type: cell-based, human; conditions: HCT116 cells, 96 hours after addition of drug, cell count (Hoechst)
Procedure: as §1

SMILES	survival / systemic toxicity (Kaplan-Meier) [1]	IC50 ([2]; Homo sapiens) [nM]	IC50 ([3]; Homo sapiens) [nM]	IC50 ([4]; Homo sapiens) [nM]	Kd [5] [µM]	IC50 ([6]; Homo sapiens, HCT-116) [nM]	IC50 [2] [nM]	IC50 [3] [nM]	IC50 [4] [nM]	IC50 [6] [nM]
COc1cc2cc(c1Cl)N(C)C(=O)C[C@H](OC(=O)[C@H](C)N(C)C(=O)CCC(C)(C)SSC[C@H](NC(=O)[C@H](Cc1c[nH]c3ccccc13)NC(=O)[C@H](CC(C)C)NC(=O)[C@H](CC(C)C)NC(=O)[C@H](CC(=O)O)NC(=O)[C@H](CC(C)C)NC(=O)[C@H](CC(C)C)NC(=O)[C@H](CC(C)C)NC(=O)[C@@H](NC(=O)[C@H](CC(=O)O)NC(=O)[C@@H](NC(=O)[C@@H]1CCCN1C(=O)[C@H](Cc1ccccc1)NC(=O)[C@H](CC(C)C)NC(=O)[C@H](CC(C)C)NC(=O)[C@H](CC(=O)O)NC(=O)[C@H](CC(C)C)NC(=O)[C@H](Cc1ccc(O)cc1)NC(=O)[C@H](C)NC(=O)[C@H](CCCNC(=N)N)NC(=O)[C@H](Cc1c[nH]c3ccccc13)NC(=O)[C@@H]1CCCN1C(=O)[C@H](CC(N)=O)NC(=O)[C@H](CCC(N)=O)NC(=O)[C@H](CC(=O)O)NC(=O)[C@H](CC(=O)O)NC(=O)[C@H](C)N)[C@@H](C)O)[C@@H](C)O)C(=O)NCC(=O)O)[C@]1(C)O[C@H]1[C@H](C)[C@@H]1C[C@@](O)(NC(=O)O1)[C@H](OC)/C=C/C=C(\C)C2 [Compound 5]	safely delivers amounts of DM4 in vivo	–	–	–	–	–	–	–	–	–
COc1cc2cc(c1Cl)N(C)C(=O)C[C@H](OC(=O)[C@H](C)N(C)C(=O)CCC(C)(C)S)C1(C)O[C@H]1[C@H](C)[C@@H]1C[C@@](O)(NC(=O)O1)[C@H](OC)/C=C/C=C(\C)C2 (stereo partly drawn) [R^2SH-2, [(1S,2R,3S,6S,16E,18E,20R,21S)-11-chloro-21-hydroxy-12,20-dimethoxy-2,5,9,16-tetramethyl-8,23-dioxo-4,24-dioxa-9,22-diazatetracyclo[19.3.1.110,14.03,5]hexacosa-10,12,14(26),16,18-pentaen-6-yl] (2S)-2-[methyl-(4-methyl-4-sulfanyl-pentanoyl)amino]propanoate]	spontaneous death of half of the DM4 group of animals	0.13	0.45	0.02	3.55	0.2	–	–	–	–
COc1cc2cc(c1Cl)N(C)C(=O)C[C@H](OC(=O)[C@H](C)N(C)C(=O)CCS)C1(C)O[C@H]1[C@H](C)[C@@H]1C[C@@](O)(NC(=O)O1)[C@H](OC)/C=C/C=C(\C)C2 (stereo partly drawn) [R^2SH-1, [(1S,2R,3S,6S,16E,18E,20R,21S)-11-chloro-21-hydroxy-12,20-dimethoxy-2,5,9,16-tetramethyl-8,23-dioxo-4,24-dioxa-9,22-diazatetracyclo[19.3.1.110,14.03,5]hexacosa-10(26),11,13,16,18-pentaen-6-yl] (2S)-2-[methyl(3-sulfanylpropanoyl)amino]propanoate]	–	2.8	9.8	2.6	–	4.3	–	–	–	–
COc1cc2cc(c1Cl)N(C)C(=O)C[C@H](OC(=O)[C@H](C)N(C)C(=O)CCSSC[C@H](NC(=O)[C@H](Cc1c[nH]c3ccccc13)NC(=O)[C@H](CC(C)C)NC(=O)[C@H](CC(C)C)NC(=O)[C@H](CC(=O)O)NC(=O)[C@H](CC(C)C)NC(=O)[C@H](CC(C)C)NC(=O)[C@H](CC(C)C)NC(=O)[C@@H](NC(=O)[C@H](CC(=O)O)NC(=O)[C@@H](NC(=O)[C@@H]1CCCN1C(=O)[C@H](Cc1ccccc1)NC(=O)[C@H](CC(C)C)NC(=O)[C@H](CC(C)C)NC(=O)[C@H](CC(=O)O)NC(=O)[C@H](CC(C)C)NC(=O)[C@H](Cc1ccc(O)cc1)NC(=O)[C@H](C)NC(=O)[C@H](CCCNC(=N)N)NC(=O)[C@H](Cc1c[nH]c3ccccc13)NC(=O)[C@@H]1CCCN1C(=O)[C@H](CC(N)=O)NC(=O)[C@H](CCC(N)=O)NC(=O)[C@H](CC(=O)O)NC(=O)[C@H](CC(=O)O)NC(=O)[C@H](C)N)[C@@H](C)O)[C@@H](C)O)C(=O)NCC(=O)O)[C@]1(C)O[C@H]1[C@H](C)[C@@H]1C[C@@](O)(NC(=O)O1)[C@H](OC)/C=C/C=C(\C)C2 [Compound 1]	–	–	–	–	–	–	10.4	60.5	7.4	21.8
